From PubChem BioAssay (NCI) come the findings set out here.

Among the test systems are OVCAR-3 ovarian; CAKI-1 renal; SK-OV-3 ovarian; LOX IMVI melanoma; EKVX NSCLC; SK-MEL-2 melanoma; RXF 393 renal; NCI-H460 lung; BT-549 breast; HCT-116 colon.
What all share (assay): DTP human tumour cell line panel, 48 h

Several values for one entry are separate records, joined by “and”; a condition that tells them apart may be missing. Equal entries are not always repeated.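 Cultured in 96-well plates, cells were exposed to test compound for 48 hours across five concentrations. The concentration for 50% growth inhibition is given as GI50. TGI: total growth inhibition.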 Where a SMILES comes first, the peptide text is derived from it. [ ]: non-standard residue; d: D form. The star is where a group is joined. NMeF = CN[C@@H](Cc1ccccc1)C(=O)O; NMeV = CN[C@H](C(=O)O)C(C)C; Boc = CC(C)(C)OC(=O)*; OBn = c1ccc(CO*)cc1 Bounds are passed on as bounds.

As for `COc1ccc(CCN2CCC(Nc3nc4ccccc4n3Cc3ccc(F)cc3)CC2)cc1`, the GI50 (usually the concentration giving 50% growth inhibition) is 1.66 µM in the test on OVCAR-3 ovarian; 1.52 µM in the test with CAKI-1 renal; 1.9 µM in the test with SK-OV-3 ovarian; 1.38 µM in the test on LOX IMVI melanoma; 1.79 µM with EKVX NSCLC; 2.29 µM in the test on SK-MEL-2 melanoma. Further, the GI50 is 1.16 µM in the test with RXF 393 renal, 2.67 µM with NCI-H460 lung, 1.6 µM in the test with BT-549 breast and 1.21 µM in the test on HCT-116 colon. Further, the concentration for total growth inhibition (TGI) (commonly the concentration giving total growth inhibition) came out at 3.07 µM in the test with OVCAR-3 ovarian; 3.24 µM in the test with CAKI-1 renal; 3.44 µM in the test on SK-OV-3 ovarian; 2.79 µM with LOX IMVI melanoma; 5.35 µM in the test with EKVX NSCLC; 4.78 µM with SK-MEL-2 melanoma. Moreover, the total growth inhibition concentration (TGI) with RXF 393 renal was 2.44 µM; in the test with NCI-H460 lung it was 9.54 µM; with BT-549 breast it was 2.96 µM; with HCT-116 colon it was 2.44 µM.
As for `Cn1ccnc1C(=O)/C=C/c1ccc(CC(=O)Nc2ccc(F)cc2)cc1`, the GI50 in the test with OVCAR-3 ovarian was 0.962 µM; in the test with CAKI-1 renal, 3.14 µM; in the test with SK-OV-3 ovarian it was 9.81 µM; in the test with LOX IMVI melanoma, 0.712 µM; in the test on EKVX NSCLC it was 5.5 µM; with SK-MEL-2 melanoma, 7.01 µM. Further, the GI50 with RXF 393 renal is 3.89 µM; in the test with NCI-H460 lung, 1.8 µM; with BT-549 breast, 1.32 µM; with HCT-116 colon, 0.99 µM. The concentration for total growth inhibition (TGI) was 3.67 µM with OVCAR-3 ovarian; over 25 µM in the test with CAKI-1 renal; over 25 µM with SK-OV-3 ovarian; 3.9 µM in the test on LOX IMVI melanoma; over 25 µM in the test with EKVX NSCLC; 23.7 µM in the test on SK-MEL-2 melanoma. Moreover, the TGI was found to be 7.97 µM in the test on RXF 393 renal, 9.89 µM in the test with NCI-H460 lung, 6.01 µM in the test with BT-549 breast and 3.68 µM in the test on HCT-116 colon.
As to `N#Cc1c(N)nc(NCc2ccccc2)c(C#N)c1-c1ccccc1Cl`, the GI50 was 18.4 µM with OVCAR-3 ovarian; 14.6 µM with CAKI-1 renal; 62.7 µM with SK-OV-3 ovarian; 4.75 µM with LOX IMVI melanoma; 24.4 µM in the test with EKVX NSCLC; 22.9 µM in the test on SK-MEL-2 melanoma. In addition, the GI50 is 24.6 µM in the test with RXF 393 renal, 4.99 µM in the test on NCI-H460 lung, 16.7 µM in the test on BT-549 breast and 16.3 µM in the test on HCT-116 colon. For the same compound, the TGI is 49.7 µM in the test on OVCAR-3 ovarian; over 100 µM with CAKI-1 renal; over 100 µM with SK-OV-3 ovarian; 35.9 µM in the test on LOX IMVI melanoma; 85.3 µM with EKVX NSCLC; 93.5 µM in the test with SK-MEL-2 melanoma. Moreover, the TGI was over 100 µM in the test on RXF 393 renal, 30.1 µM in the test on NCI-H460 lung, 53.9 µM with BT-549 breast and over 100 µM in the test with HCT-116 colon.
As for `OCC1OC2OC3C(CO)OC(OC4C(CO)OC(OC5C(CO)OC(OC6C(CO)OC(OC7C(CO)OC(OC1C(O)C2O)C(O)C7O)C(O)C6O)C(O)C5O)C(O)C4O)C(O)C3O` (stereo not given) (tested in a mixture with another compound), the TGI in the test with OVCAR-3 ovarian, in the test on CAKI-1 renal, in the test with SK-OV-3 ovarian, in the test with LOX IMVI melanoma, in the test with EKVX NSCLC and in the test with SK-MEL-2 melanoma was over 100 µM throughout. The total growth inhibition concentration (TGI) in the test with RXF 393 renal, in the test with NCI-H460 lung, in the test with BT-549 breast and in the test on HCT-116 colon was over 100 µM each time.
With `O=S(=O)(CCNCc1ccc(-c2ccc3ncnc(Nc4ccc(OCc5cccc(F)c5)c(Cl)c4)c3c2)o1)c1ccccc1`, the GI50 was over 25 µM in the test with OVCAR-3 ovarian; 6.05 µM in the test on CAKI-1 renal; 0.349 µM with SK-OV-3 ovarian; over 25 µM in the test on LOX IMVI melanoma; 3.44 µM in the test on EKVX NSCLC; over 25 µM with SK-MEL-2 melanoma. Moreover, the GI50 in the test on RXF 393 renal, in the test on NCI-H460 lung, in the test on BT-549 breast and with HCT-116 colon was over 25 µM throughout. The TGI with OVCAR-3 ovarian, with CAKI-1 renal, in the test on SK-OV-3 ovarian, in the test on LOX IMVI melanoma, in the test with EKVX NSCLC and in the test on SK-MEL-2 melanoma was over 25 µM each time. Moreover, the TGI in the test on RXF 393 renal, in the test with NCI-H460 lung, in the test with BT-549 breast and in the test with HCT-116 colon was over 25 µM throughout.
With `Brc1ccccc1C=NC12CC3CC(CC(C3)C1)C2`, the concentration for total growth inhibition (TGI) with OVCAR-3 ovarian, in the test with CAKI-1 renal, with SK-OV-3 ovarian, in the test on LOX IMVI melanoma, with EKVX NSCLC and in the test with SK-MEL-2 melanoma was over 100 µM each time. The concentration for total growth inhibition (TGI) in the test on RXF 393 renal, in the test with NCI-H460 lung, in the test on BT-549 breast and in the test with HCT-116 colon was over 100 µM in each case.
Regarding H-HIIKKIRTWYRKAWHVLGKV-NH2, the GI50 was 10.4 µM in the test with OVCAR-3 ovarian; 3.32 µM with CAKI-1 renal; 6.36 µM in the test on SK-OV-3 ovarian; 21.7 µM in the test with LOX IMVI melanoma; 2.37 µM in the test on EKVX NSCLC; 5.31 µM in the test on SK-MEL-2 melanoma. Also, the GI50 in the test with RXF 393 renal is 4.23 µM; in the test on NCI-H460 lung it was 3.34 µM; in the test on BT-549 breast, 12.8 µM; with HCT-116 colon, 17.5 µM. The TGI in the test on OVCAR-3 ovarian stood at 39.3 µM; with CAKI-1 renal it was 18.3 µM; in the test on SK-OV-3 ovarian it was 22.2 µM; in the test on LOX IMVI melanoma, 82.3 µM; in the test on EKVX NSCLC it was 6.73 µM; in the test on SK-MEL-2 melanoma it was 28.2 µM. The concentration for total growth inhibition (TGI) came to 25.1 µM in the test on RXF 393 renal, 92.4 µM in the test with NCI-H460 lung, 32.1 µM in the test with BT-549 breast and 42 µM in the test on HCT-116 colon.
As to `CC(C)[C@@H](C(=O)N1CCC[C@H]1C(=O)OCc1ccccc1)N(C)C(=O)[C@H](C(C)C)N(C)C(=O)[C@H](Cc1ccccc1)N(C)C(=O)[C@H](NC(=O)OC(C)(C)C)C(C)C` (Boc-[dV][NMeF][NMeV][NMeV]P-OBn), the GI50 in the test with OVCAR-3 ovarian was over 100 µM; in the test on CAKI-1 renal, over 100 µM; in the test with LOX IMVI melanoma, 12.9 µM; with RXF 393 renal, 22.4 µM; in the test on NCI-H460 lung it was 17.5 µM; in the test with HCT-116 colon, 19.6 µM. Besides, the TGI in the test with OVCAR-3 ovarian is over 100 µM; in the test with CAKI-1 renal it was over 100 µM; in the test with SK-OV-3 ovarian it was over 100 µM; with LOX IMVI melanoma, > 50 µM and 26.6 µM; in the test on EKVX NSCLC it was over 100 µM; with SK-MEL-2 melanoma it was over 100 µM. Besides, the total growth inhibition concentration (TGI) was > 50 µM and 65.3 µM in the test on RXF 393 renal; over 100 µM with NCI-H460 lung; over 50 µM in the test on BT-549 breast; over 100 µM in the test with HCT-116 colon.
On to `CC(=O)OC1Oc2cc(C)c(C)cc2-c2oc(=O)c(-c3ccc(F)cc3)cc21` (stereo not given), for which the GI50 with OVCAR-3 ovarian was 3.99 µM; with CAKI-1 renal, 15.8 µM; in the test on SK-OV-3 ovarian, 4.38 µM; in the test with LOX IMVI melanoma, 5.61 µM; in the test on EKVX NSCLC, 5.23 µM; with SK-MEL-2 melanoma, 6.05 µM. Also, the GI50 in the test with RXF 393 renal was 2.95 µM; in the test on NCI-H460 lung, 3.9 µM; in the test on BT-549 breast it was 7.76 µM; in the test with HCT-116 colon, 4.23 µM. For the same compound, the total growth inhibition concentration (TGI) in the test with OVCAR-3 ovarian was 16.6 µM; in the test on CAKI-1 renal, over 100 µM; with SK-OV-3 ovarian it was 54 µM; in the test on LOX IMVI melanoma it was over 100 µM; in the test with EKVX NSCLC, over 100 µM; in the test on SK-MEL-2 melanoma, 41.3 µM. For the same compound, the TGI worked out at 8.71 µM with RXF 393 renal, 24.4 µM in the test with NCI-H460 lung, 45.9 µM in the test with BT-549 breast and 46.2 µM with HCT-116 colon.
On to `COC(=O)/C(=N\NC(=S)NN)C(C(=O)OC)C(=O)C(=O)Nc1cccc(C(F)(F)F)c1` (stereo not given), for which the total growth inhibition concentration (TGI) with OVCAR-3 ovarian, in the test with CAKI-1 renal, with SK-OV-3 ovarian, with LOX IMVI melanoma, in the test with EKVX NSCLC and with SK-MEL-2 melanoma was over 100 µM throughout. Moreover, the TGI with RXF 393 renal, in the test on NCI-H460 lung, in the test on BT-549 breast and with HCT-116 colon was over 100 µM throughout.
Consider `Cc1[nH]nc2ccc3nc(-c4ccc5[nH]ncc5c4)c4c(c3c12)CCCC4`, for which the GI50 in the test with OVCAR-3 ovarian was 2.07 µM; in the test with CAKI-1 renal, 0.535 µM; with SK-OV-3 ovarian, 0.243 µM; in the test on LOX IMVI melanoma, 1.22 µM; in the test with EKVX NSCLC, 2.95 µM; in the test on SK-MEL-2 melanoma it was 0.476 µM. The GI50 in the test with RXF 393 renal was 0.23 µM; with NCI-H460 lung, 0.832 µM; in the test with BT-549 breast, 1.1 µM; in the test on HCT-116 colon, 0.473 µM. For the same compound, the total growth inhibition concentration (TGI) was determined as 10.6 µM in the test on OVCAR-3 ovarian; 12 µM in the test with CAKI-1 renal; 0.94 µM with SK-OV-3 ovarian; 11 µM in the test with LOX IMVI melanoma; 25.7 µM with EKVX NSCLC; 2.48 µM in the test on SK-MEL-2 melanoma. Also, the TGI in the test on NCI-H460 lung worked out at 11.2 µM; in the test with BT-549 breast, 8.8 µM; in the test on HCT-116 colon, 11.3 µM.
Regarding `O=C1NC(c2c(Cl)cccc2Cl)Nc2ccccc21` (stereo not given), the total growth inhibition concentration (TGI) in the test on OVCAR-3 ovarian is over 100 µM; in the test on CAKI-1 renal, 76.7 µM; in the test on SK-OV-3 ovarian it was over 100 µM; in the test with LOX IMVI melanoma it was over 100 µM; with EKVX NSCLC, over 100 µM; in the test with SK-MEL-2 melanoma it was over 100 µM. Further, the concentration for total growth inhibition (TGI) in the test on RXF 393 renal, with NCI-H460 lung, in the test on BT-549 breast and in the test with HCT-116 colon was over 100 µM throughout.
